Measured values published in ChEMBL document CHEMBL1139945, “Synthesis and biological evaluation of an 123I-labeled bicyclic nucleoside analogue (BCNA) as potential SPECT tracer for VZV-tk reporter gene imaging” (Bioorg Med Chem Lett, 2007).

Molecular target: T1, Thymidine kinase (Varicella-zoster virus (strain Dumas) (HHV-3) (Human herpesvirus 3), UniProt P09250)
T1 sequence (P09250 whole entry): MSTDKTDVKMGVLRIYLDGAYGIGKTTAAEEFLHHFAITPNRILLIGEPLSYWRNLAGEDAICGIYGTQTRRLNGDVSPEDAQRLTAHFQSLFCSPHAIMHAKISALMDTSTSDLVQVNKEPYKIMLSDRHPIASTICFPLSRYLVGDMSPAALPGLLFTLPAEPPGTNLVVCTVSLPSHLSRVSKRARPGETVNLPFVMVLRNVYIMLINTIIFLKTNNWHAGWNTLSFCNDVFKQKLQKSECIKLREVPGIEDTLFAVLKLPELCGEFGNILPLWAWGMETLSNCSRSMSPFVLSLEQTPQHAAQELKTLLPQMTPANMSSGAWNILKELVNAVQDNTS
Assay: Inhibition of VZV thymidine kinase
Parameters: species or system Human alphaherpesvirus 3

SMILES | IC50
O=c1nc2oc(-c3ccc(I)c(O)c3)cc2cn1[C@H]1C[C@H](O)[C@@H](CO)O1 | 4.2 µM
O=c1nc2oc(-c3cccc(O)c3)cc2cn1[C@H]1C[C@H](O)[C@@H](CO)O1 | 2.6 µM
